Read-outs that look alike come from different tables or passages of the source.
Experiment: Biodistribution of 99mTc(N)(X)(DTC)+ heterocomplexes in rats
Format: in vivo, male Spraque-Dawley rats (SD rats)
Method: The biodistribution of a ^99mTc nitride heterocomplex represented by the general formula ^99mTc(N)(X)(Y) was investigated as follows: ^99mTc nitride heterocomplexes were synthesized using DTC as a bidentate ligand Y and each of the diphosphine compounds X described below, and the biodistribution in rats of each heterocomplex was investigated.
Before being injected into rats, the contents of the vial were diluted with phosphate buffer (0.1 mol/dm^3, pH=7.06) containing 10% Tween 80 ([…]). The complexes were stable in the solutions and in human plasma for at least 6 hours.
The biodistribution was measured using male Spraque-Dawley rats (SD rats) weighing 200 to 250 g. After 24 hours fasting, the rats were put under intraperitoneal anesthesia and given an injection in the jugular vein. Then, the organs were excised from the rats at different intervals of time, washed and then weighed. In addition, blood samples were collected and then weighed. The data on the biodistribution are expressed as the mean±significant difference of the percentage of radioactivity level per gram of the organ weight based on the dose of radioactivity, (% dose/g). The measurement was carried out using groups of 5 rats each.

Work on `CSC1=[S+][99Tc-2]2(#[N])([NH]N1C)[P+](c1ccccc1)(c1ccccc1)CCOCC[P+]2(c1ccccc1)c1ccccc1` [^99mTc(N)(POP)(DTC)^+] yielded a Bone % dose/g of 0.225 ± 0.01 % dose/g, a Heart % dose/g of 0.923 ± 0.04 % dose/g and a Liver % dose/g of 3.662 ± 0.43 % dose/g. For the same compound, the Spleen % dose/g was 2.202 ± 0.07 % dose/g, the Blood % dose/g (0 min after injection) was 2.617 ± 0.04 % dose/g and the Brain % dose/g (0 min after injection) was 0.142 ± 0.14 % dose/g. It also gave an Intestine % dose/g (0 min after injection) of 0.482 ± 0.02 % dose/g, a Kidney % dose/g (0 min after injection) of 3.141 ± 0.35 % dose/g and a Lung % dose/g (0 min after injection) of 2.792 ± 0.18 % dose/g. For the same compound, the Muscle % dose/g (0 min after injection) was 0.087 ± 0.00 % dose/g, the Stomach % dose/g (0 min after injection) was 0.522 ± 0.09 % dose/g and the Blood % dose/g (2 min after injection) was 1.254 ± 0.19 % dose/g. The Bone % dose/g (2 min after injection) was 0.214 ± 0.05 % dose/g, the Brain % dose/g (2 min after injection) was 0.073 ± 0.00 % dose/g and the Heart % dose/g (2 min after injection) was 0.73 ± 0.07 % dose/g. It also gave an Intestine % dose/g (2 min after injection) of 0.581 ± 0.06 % dose/g, a Kidney % dose/g (2 min after injection) of 5.952 ± 0.74 % dose/g and a Liver % dose/g (2 min after injection) of 4.821 ± 0.71 % dose/g. The Lung % dose/g (2 min after injection) was 2.387 ± 0.08 % dose/g, the Muscle % dose/g (2 min after injection) was 0.075 ± 0.00 % dose/g and the Spleen % dose/g (2 min after injection) was 3.587 ± 0.99 % dose/g. The Stomach % dose/g (2 min after injection) was 0.493 ± 0.02 % dose/g, the Blood % dose/g (10 min after injection) was 0.542 ± 0.02 % dose/g and the Bone % dose/g (10 min after injection) was 0.306 ± 0.07 % dose/g. The Brain % dose/g (10 min after injection) was 0.029 ± 0.00 % dose/g, the Heart % dose/g (10 min after injection) was 0.434 ± 0.05 % dose/g and the Intestine % dose/g (10 min after injection) was 0.934 ± 0.03 % dose/g. For the same compound, the Kidney % dose/g (10 min after injection) was 4.805 ± 0.51 % dose/g, the Liver % dose/g (10 min after injection) was 6.161 ± 0.47 % dose/g and the Lung % dose/g (10 min after injection) was 1.19 ± 0.40 % dose/g. The Muscle % dose/g (10 min after injection) was 0.069 ± 0.01 % dose/g, the Spleen % dose/g (10 min after injection) was 3.538 ± 0.70 % dose/g and the Stomach % dose/g (10 min after injection) was 0.653 ± 0.06 % dose/g. The Blood % dose/g (30 min after injection) was 0.547 ± 0.01 % dose/g, the Bone % dose/g (30 min after injection) was 0.21 ± 0.02 % dose/g and the Brain % dose/g (30 min after injection) was 0.023 ± 0.00 % dose/g. The Heart % dose/g (30 min after injection) was 0.428 ± 0.05 % dose/g, the Intestine % dose/g (30 min after injection) was 0.64 ± 0.00 % dose/g and the Kidney % dose/g (30 min after injection) was 3.25 ± 1.12 % dose/g. For the same compound, the Liver % dose/g (30 min after injection) was 6.199 ± 0.15 % dose/g, the Lung % dose/g (30 min after injection) was 1.05 ± 0.13 % dose/g and the Muscle % dose/g (30 min after injection) was 0.083 ± 0.03 % dose/g. It also gave a Spleen % dose/g (30 min after injection) of 2.07 ± 0.55 % dose/g, a Stomach % dose/g (30 min after injection) of 0.216 ± 0.01 % dose/g and a Blood % dose/g (1 hr after injection) of 0.261 ± 0.14 % dose/g. For the same compound, the Bone % dose/g (1 hr after injection) was 0.327 ± 0.02 % dose/g, the Brain % dose/g (1 hr after injection) was 0.019 ± 0.00 % dose/g and the Heart % dose/g (1 hr after injection) was 0.42 ± 0.05 % dose/g. It also gave an Intestine % dose/g (1 hr after injection) of 1.236 ± 0.03 % dose/g, a Kidney % dose/g (1 hr after injection) of 5.054 ± 0.18 % dose/g and a Liver % dose/g (1 hr after injection) of 5.128 ± 0.15 % dose/g. The Lung % dose/g (1 hr after injection) was 0.771 ± 0.09 % dose/g, the Muscle % dose/g (1 hr after injection) was 0.068 ± 0.01 % dose/g and the Spleen % dose/g (1 hr after injection) was 3.542 ± 1.23 % dose/g. The Stomach % dose/g (1 hr after injection) was 0.944 ± 0.16 % dose/g, the Blood % dose/g (2 hr after injection) was 0.145 ± 0.01 % dose/g and the Bone % dose/g (2 hr after injection) was 0.296 ± 0.01 % dose/g. For the same compound, the Brain % dose/g (2 hr after injection) was 0.018 ± 0.01 % dose/g, the Heart % dose/g (2 hr after injection) was 0.384 ± 0.00 % dose/g and the Intestine % dose/g (2 hr after injection) was 1.478 ± 0.09 % dose/g. For the same compound, the Kidney % dose/g (2 hr after injection) was 5.145 ± 0.11 % dose/g, the Liver % dose/g (2 hr after injection) was 3.05 ± 0.07 % dose/g and the Lung % dose/g (2 hr after injection) was 0.757 ± 0.05 % dose/g. The Muscle % dose/g (2 hr after injection) was 0.066 ± 0.03 % dose/g, the Spleen % dose/g (2 hr after injection) was 4.32 ± 0.19 % dose/g and the Stomach % dose/g (2 hr after injection) was 1.857 ± 0.22 % dose/g. It also gave a Blood % dose/g (4 hr after injection) of 0.125 ± 0.00 % dose/g, a Bone % dose/g (4 hr after injection) of 0.321 ± 0.01 % dose/g and a Brain % dose/g (4 hr after injection) of 0.01 ± 0.00 % dose/g. It also gave a Heart % dose/g (4 hr after injection) of 0.303 ± 0.01 % dose/g, an Intestine % dose/g (4 hr after injection) of 1.843 ± 0.02 % dose/g and a Kidney % dose/g (4 hr after injection) of 1.745 ± 0.11 % dose/g. For the same compound, the Liver % dose/g (4 hr after injection) was 1.538 ± 0.01 % dose/g, the Lung % dose/g (4 hr after injection) was 0.549 ± 0.03 % dose/g and the Muscle % dose/g (4 hr after injection) was 0.067 ± 0.00 % dose/g. The Spleen % dose/g (4 hr after injection) was 3.094 ± 0.50 % dose/g and the Stomach % dose/g (4 hr after injection) was 1.74 ± 0.01 % dose/g.

Source: US20020048549A1, “Radioactive transition metal nitride heterocomplex” (priority 1996, published 2002)
